Test results taken from PMC4650712, “Conversion of cell-survival activity of Akt into apoptotic death of cancer cells by two mutations on the BIM BH3 domain” (Cell Death & Disease, 2015).

Experiments:
H1299 = assay: MTT assay, H1299 lung cancer cells; assay type: cell-based, human; details: PTEN-silenced
Description: (§1) For intracellular delivery, BH3BIM(I155R/E158S) was fused to the C-terminus of the cell penetration peptide (CPP) derived from HIV Tat (Figure 1). PC3 and HCT116 cells were treated with the CPP-BH3BIM(I155R/E158S) peptide, and the MTT assay was performed. […] We then measured the activity of Akt by examining the phosphorylation state of itself and its substrate GSK3β. […] To elaborate this observation, we examined the effect of the fusion peptide in three different human lung cancer cell lines. […] We then assessed the effect of the Akt activity by ectopically expressing wild-type Akt (Akt-WT), constitutively active Akt (myristoylated Akt; Akt-Myr) or kinase-dead-Akt (Akt-KD). […] The kinase activities of the three Akt versions were confirmed by examining GSK3β phosphorylation (Figures 6f and p-GSK3β). To know whether CPP-BH3BIM(I155R/E158S)-induced cell death might depend on BAX, the HCT116 BAX^+/− and the HCT116 BAX^−/− cell lines were transfected with an expression vector encoding AKT-Myr and the cells were treated with the peptide. […]
(§2) Figure 6 CPP-fused BH3BIM(I155R/E158S) peptide induces death of PC3 cells. (a) Cell viability evaluated by the MTT assay 72 h after treatment of the peptide (0, 10 or 20 μM). […] Cytochrome c (green) was detected by anti-cytochrome c antibody and FITC-conjugated secondary antibody, and the nucleus was stained by DAPI. […]

GSK3β = assay: Western blot of GSK3β phosphorylation (Ser9) in PC3 cells; details: 6 h
PC3 cells [1] = assay: Cell fractionation: cytochrome c release from mitochondria; assay type: cell-based; details: 6 h
Description: Figure 7 The BH3BIM(I155R/E158S) sequence induces phosphorylation-dependent cell death. (a) Cell viability by the MTT assay. One day after transfection of PC3 cells with an empty vector (EV) or a PTEN-expressing vector (PTEN), cells were treated for 12 h with AuNP-anti-GST DNA aptamer composite coated with the indicated BH3BIM peptide fused to GST (5 μM). (b) Intracellular delivery of the GST-fused peptides. Cells were washed with PBS three times to remove proteins attached to the plasma membrane. M1 stands for BH3BIM (E158S), M2 for BH3BIM (I155R/E158A), and M3 for BH3BIM (I155R/E158S). (c) Cell viability by trypan blue dye exclusion assay. To confirm the effect in (a), cells were incubated with indicated materials for 24 h and stained with trypan blue for 10 min. Percent of live cells were determined by average of 200 cells in three independent experiments. (d) Immunostaining of cytochrome c in PC3 cells. Cells were transfected (EV or PTEN), and incubated with the CPP-BH3BIM(I155R/E158S) peptide (CPP-peptide) for 48 h. […] Cells were incubated with CPP-BH3BIM(I155R/E158S) for 6 h and subjected to cell fractionation. […] (g) HEK293 cells were treated in the same way as in (a). Viable cells were evaluated 48 h after the treatment by the MTT assay. Error bars indicate the S.D. (n=3) […]

PARP = PARP cleavage; assay type: cell-based; details: PTEN-transfected; indicator of caspase activation
Description: Figure 7 The BH3BIM(I155R/E158S) sequence induces phosphorylation-dependent cell death. (a) Cell viability by the MTT assay. One day after transfection of PC3 cells with an empty vector (EV) or a PTEN-expressing vector (PTEN), cells were treated for 12 h with AuNP-anti-GST DNA aptamer composite coated with the indicated BH3BIM peptide fused to GST (5 μM). (b) Intracellular delivery of the GST-fused peptides. Cells were washed with PBS three times to remove proteins attached to the plasma membrane. M1 stands for BH3BIM (E158S), M2 for BH3BIM (I155R/E158A), and M3 for BH3BIM (I155R/E158S). (c) Cell viability by trypan blue dye exclusion assay. To confirm the effect in (a), cells were incubated with indicated materials for 24 h and stained with trypan blue for 10 min. Percent of live cells were determined by average of 200 cells in three independent experiments. (d) Immunostaining of cytochrome c in PC3 cells. Cells were transfected (EV or PTEN), and incubated with the CPP-BH3BIM(I155R/E158S) peptide (CPP-peptide) for 48 h. […] (e) PTEN blocked the cytochrome c release from mitochondria. Cells were incubated with CPP-BH3BIM(I155R/E158S) for 6 h and subjected to cell fractionation. […] (g) HEK293 cells were treated in the same way as in (a). Viable cells were evaluated 48 h after the treatment by the MTT assay. Error bars indicate the S.D. (n=3) […]

HCT116 cells [2] = assay: Immunofluorescence of cytochrome c, HCT116 cells; assay type: cell-based, human; details: 20 μM
Description: as §1, with “p-GSK3β).” for “p-GSK3β). To know whether CPP-BH3BIM(I155R/E158S)-induced cell death might depend on BAX, the HCT116 BAX^+/− and the HCT116 BAX^−/− cell lines were transfected with an expression vector encoding AKT-Myr and the cells were treated with the peptide.”
as §2
Cells were seeded on a cover glass and incubated with the CCP-fused BH3BIM(I155R/E158S) peptide. […] The immunofluorescence signal was detected by fluorescence microscopy (Zeiss, Oberkochen, Germany).

HCT116 cells [3] = assay: Death of HCT116 cells with ectopic Akt; assay type: cell-based; details: peptide 72 h
Description: (§3) For intracellular delivery, BH3BIM(I155R/E158S) was fused to the C-terminus of the cell penetration peptide (CPP) derived from HIV Tat (Figure 1). PC3 and HCT116 cells were treated with the CPP-BH3BIM(I155R/E158S) peptide, and the MTT assay was performed. […] We then measured the activity of Akt by examining the phosphorylation state of itself and its substrate GSK3β. […] To elaborate this observation, we examined the effect of the fusion peptide in three different human lung cancer cell lines. […] We then assessed the effect of the Akt activity by ectopically expressing wild-type Akt (Akt-WT), constitutively active Akt (myristoylated Akt; Akt-Myr) or kinase-dead-Akt (Akt-KD). […] The kinase activities of the three Akt versions were confirmed by examining GSK3β phosphorylation (Figures 6f and p-GSK3β). To know whether CPP-BH3BIM(I155R/E158S)-induced cell death might depend on BAX, the HCT116 BAX^+/− and the HCT116 BAX^−/− cell lines were transfected with an expression vector encoding AKT-Myr and the cells were treated with the peptide. […] The survival of the BAX^−/− cells despite the CPP-BH3BIM(I155R/E158S) treatment could be explained by an observation that the designed peptide only weakly binds to MCL-1 (not shown), which is a major inhibitor of BAK.[35] Presumably, both MCL-1 and BAK are expressed in these cells.[36]
Figure 6 CPP-fused BH3BIM(I155R/E158S) peptide induces death of PC3 cells. (a) Cell viability evaluated by the MTT assay 72 h after treatment of the peptide (0, 10 or 20 μM). N.S indicates non-significance. Error bars indicate S.D. (n=3). (b) The immunofluorescence images of PC3 and HCT116 cells treated with 20-μM CPP-BH3BIM(I155R/E158S). Cytochrome c (green) was detected by anti-cytochrome c antibody and FITC-conjugated secondary antibody, and the nucleus was stained by DAPI. The large boxes are the enlargement of the small boxes, highlighting the cytochrome c staining. (c) Western blot (WB) analysis to examine the effect of CPP-BH3BIM(I155R/E158S) on the phosphorylation of Akt (at Ser473) and GSK3β (at Ser9). […]

Akt = assay: Western blot of Akt phosphorylation (Ser473) in PC3 cells; assay type: cell-based; details: 6 h
Description: as §1, §2

HEK293 cells = assay: MTT assay, HEK293 cells; assay type: cell-based; details: AuNP-protein or CPP-peptide
Description: Figure 7 The BH3BIM(I155R/E158S) sequence induces phosphorylation-dependent cell death. (a) Cell viability by the MTT assay. One day after transfection of PC3 cells with an empty vector (EV) or a PTEN-expressing vector (PTEN), cells were treated for 12 h with AuNP-anti-GST DNA aptamer composite coated with the indicated BH3BIM peptide fused to GST (5 μM). (b) Intracellular delivery of the GST-fused peptides. Cells were washed with PBS three times to remove proteins attached to the plasma membrane. M1 stands for BH3BIM (E158S), M2 for BH3BIM (I155R/E158A), and M3 for BH3BIM (I155R/E158S). (c) Cell viability by trypan blue dye exclusion assay. To confirm the effect in (a), cells were incubated with indicated materials for 24 h and stained with trypan blue for 10 min. Percent of live cells were determined by average of 200 cells in three independent experiments. (d) Immunostaining of cytochrome c in PC3 cells. […] Viable cells were evaluated 48 h after the treatment by the MTT assay. […]
PC3 and HEK293 cells were incubated with the GST-BH3BIM(I155R/E158S) protein conjugated to AuNP-anti-GST DNA aptamer composite[37] after transfection with a PTEN expression vector (pCMV Flag WT-PTEN; addgene plasmid #22231). […] After removing excess solution and washing with PBS, the precipitated materials were dissolved in […] of dimethyl sulfoxide and quantified by measuring the absorbance at 540 nm. […]

A549 = assay: MTT assay, A549 lung cancer cells; assay type: cell-based, human; details: K-Ras mutation
Description: as §1, §2

PC3 cells [4] = assay: Immunofluorescence of cytochrome c, PC3 cells; assay type: cell-based, human
Description: as §3
Figure 6 CPP-fused BH3BIM(I155R/E158S) peptide induces death of PC3 cells. (a) Cell viability evaluated by the MTT assay 72 h after treatment of the peptide (0, 10 or 20 μM). N.S indicates non-significance. Error bars indicate S.D. (n=3). (b) The immunofluorescence images of PC3 and HCT116 cells treated with 20-μM CPP-BH3BIM(I155R/E158S). Cytochrome c (green) was detected by anti-cytochrome c antibody and FITC-conjugated secondary antibody, and the nucleus was stained by DAPI. The large boxes are the enlargement of the small boxes, highlighting the cytochrome c staining. (c) Western blot (WB) analysis to examine the effect of CPP-BH3BIM(I155R/E158S) on the phosphorylation of Akt (at Ser473) and GSK3β (at Ser9). PC3 cells were incubated with the peptide for 6 h at the indicated concentration. t-Akt and t-GSK3β stand for total Akt and GSK3β, respectively. (d) MTT assay to examine the cytotoxic effect of CPP-BH3BIM(I155R/E158S) on lung cancer cell lines. […] (e) Promotion of CPP-BH3BIM(I155R/E158S)-induced death of HCT116 cells by Akt. Cells were transfected with the indicated vectors for 24 h and incubated with the peptide for 72 h. Cell death was promoted by Akt-WT and Akt-Myr, but not by Akt-KD. (f) Phosphorylation of GSK3β (p-GSK3β) by Akt-WT and Akt-Myr, but not by Akt-KD. […]
Figure 7 The BH3BIM(I155R/E158S) sequence induces phosphorylation-dependent cell death. […] Percent of live cells were determined by average of 200 cells in three independent experiments. […]

PC3 cells [5] = assay: MTT viability assay, PC3 cells, CPP-fused peptide; details: 72 h, 0, 10 or 20 μM, n=3, PTEN-null, elevated Akt activity
H23 = assay: MTT assay, H23 lung cancer cells; assay type: cell-based, human; details: wild-type K-Ras, normal Akt activity
Description: as §1, §2

In the case of “YGRRARRRARREIWIAQELRRRGDSFNAYYAR [CPP-BH3BIM(I155R/E158S), BH3BIM(I155R/E158S) fused to the C-terminus of the cell penetration peptide (CPP) derived from HIV Tat]”, the “sensitivity to the peptide” value (H1299) is reported as “exhibited sensitivity to the peptide”, the “phosphorylation of GSK3β (Ser9)” value (GSK3β; PC3 cells, western blot) is reported as “reduced the phosphorylation of GSK3β” and the p-S9-GSK3β (GSK3β; PTEN experiment (Figure 7e)) is reported as “Reduction of p-S9-GSK3β”. For the same sequence, the cytoplasmic cytochrome c (PC3 cells [1]) was “Increase of cytoplasmic cytochrome c”, the “increase of cytoplasmic cytochrome c with PTEN expression” value (PC3 cells [1]; PTEN-transfected) was “obviously blocked by PTEN expression” and the “PARP cleavage with PTEN” value (PARP) was “PTEN also blocked PARP cleavage”. The cytochrome c distribution (HCT116 cells [2]) was “retained the puncta staining pattern”, the “promotion of peptide-induced cell death” value (HCT116 cells [3]; Akt-KD transfected 24 h) was “did not show an additive effect” and the “promotion of peptide-induced cell death” value (HCT116 cells [3]; Akt-Myr transfected 24 h) was “promoted death of HCT116 cells”. The “promotion of peptide-induced cell death” value (HCT116 cells [3]; Akt-WT transfected 24 h) was “promoted death of HCT116 cells”, the “phosphorylation of Akt (Ser473)” value (Akt) was “not Akt itself” and the “viability of HEK293 cells (Supplementary Figure S6)” value (HEK293 cells) was “slightly increased cell viability without a statistical significance”. The “response to the peptide” value (A549) was “moderate response”, the apoptotic cell death (PC3 cells [4]; 20 μM, immunofluorescence) was “underwent apoptotic cell death” and the cytochrome c distribution (PC3 cells [4]; 20 μM, immunofluorescence, untransfected PC3) was “diffused in the cytoplasm and gradually accumulated in the nucleus”. For the same sequence, the “cytochrome c staining pattern” value (PC3 cells [4]; EV-transfected PC3, 48 h) was “diffused nuclear pattern”, the “cytochrome c staining pattern” value (PC3 cells [4]; PTEN-expressing PC3, 48 h) was “Cytoplasmic puncta staining pattern” and the cytotoxic activity (PC3 cells [5]) was “strong cytotoxic activity”. For the same sequence, the “response to the peptide” value (H23) was “did not respond to this peptide”.
